Laboratory results as given in PMC5794198, “Inhibitors of Trypanosoma cruzi Sir2 related protein 1 as potential drugs against Chagas disease” (PLoS Neglected Tropical Diseases, 2018).
Entries after “also recorded” stand apart in the source; their conditions may differ.

Assays:
[1] = system: T. cruzi epimastigotes, wild-type (WT); experiment: T. cruzi epimastigote resazurin viability assay, wild-type; assay type: cell-based, Trypanosoma cruzi; settings: CL-Brener, 64 h + 6 h resazurin; means ± SD (n = 4)
Description: T. cruzi epimastigotes were seeded at 1.25 x 10^6 cells/mL in a 96-well plate in the presence of varying concentrations of test compounds. Following a 64-hour incubation, 15 μL of a resazurin solution (Sigma-Aldrich; 1.1 mg/mL in PBS). […] Each assay was performed in at least triplicate in parallel to the known trypanocidal agent nifurtimox.

[2] = system: MDCK cells; experiment: MTT cytotoxicity on MDCK cells; assay type: cell-based; settings: MTT
Description: (§1) To evaluate toxicity towards mammalian cell lines (hepatocytes (Seralab), neurons and MDCK cells (ATCC); a renal cell line from dogs), all the compounds were assayed with MTT [66]. Additionally, for cardiotoxicity evaluation, where toxic effects in cardiomyocytes could be affecting their function before being lethal, a hERG assay was performed according to the manufacturer’s protocol Predictor hERG Fluorescence Polarization Assay (Invitrogen). Briefly, inhibition of hERG channel was analysed by competition of BNIPSpd and a high-affinity red fluorescent hERG channel ligand. BNIPSpd (9) was mixed with the ligand and membranes containing hERG channel, incubated for 2 hrs at RT and the fluorescence polarization was measured using 530 / 590 nm ex/em filters using the Synergy 2 plate reader (Biotek).

[3] = MTT cytotoxicity on MDCK cells; assay type: cell-based; settings: dog, MDCK; CC50 cell line / EC50 T. cruzi; read-out: Selectivity Index, MDCK cells
Description: as §1

[4] = system: T. cruzi Y strain (Luc+); experiment: Mouse model of T. cruzi infection, bioluminescence imaging; assay type: in vivo, BALB/c mice; settings: 5 mg/kg/day intravenously for 4 consecutive days from day 7 of infection; listed as BNIPSpd (9)
Description: To evaluate BNIPSpd (9) efficacy in vivo, five- to six-week-old female BALB/c mice (Charles River) and infected with T. cruzi trypomastigotes expressing luciferase. Parasites were collected from the supernatants of a monolayer of Vero infected cells, washed and suspended in PBS-glucose 0.2%, and injected intraperitoneally (1 x 10^4 per mouse). After 7 days of infection, mice were treated with drugs for 4 consecutive days orally with (benznidazole in 20% Kolliphor HS 15) or intravenously with (BNIPSpd (9) in 10% DMSO) at a dose of 100 or 5 mg/kg/day, respectively. Infection and treatment efficiency were evaluated following subcutaneous injection of 2.1 mg of luciferin and through live imaging using an IVIS Lumina LT (Perkin Elmer). Images of the animals were analysed using the Living Image software (Perkin Elmer).
Supplementary file pntd.0006180.s006.tif: S5 Fig In vivo efficacy testing of BNIPSpd (9). A) Mice were infected with 10^4 Luc^+ trypomastigotes by intraperitoneal injection. […] In the lower panel, bioluminescence signal of whole mice represented in average radiance (photons/sec/cm^2/sr) quantified before and after treatment. […] B) Snapshot Pharmacokinetics of BNIPSpd (9) in BALB/c mice by quantification of BNIPSpd (9) in the blood of mice by UHPLC-MS/MS ESI+ at different time-points after administration of a 5 mg/kg dose by intravenous injection. […]

[5] = MTT cytotoxicity on hepatocytes; assay type: cell-based; settings: hepatocytes, CC50 cell line / EC50 T. cruzi; read-out: Selectivity Index, hepatocytes
Description: as §1

[6] = system: Hepatocytes; experiment: MTT cytotoxicity on hepatocytes; assay type: cell-based; settings: MTT
Description: as §1

[7] = Snapshot pharmacokinetics in blood after intravenous injection; assay type: in vivo, BALB/c mice; settings: 5 mg/kg intravenous
Description: The pharmacokinetic profile of BNIPSpd was determined following intravenous injection of 5 mg/kg in BALB/c mice. The blood was collected from tail veins after 0, 5, 15, 30, 45 min, 1, 3, 24, 48 and 72 h of drug administration. Blood concentrations of the drug were analysed by UHPLC- ESI-MS/MS.
Supplementary file pntd.0006180.s006.tif: S5 Fig In vivo efficacy testing of BNIPSpd (9). A) Mice were infected with 10^4 Luc^+ trypomastigotes by intraperitoneal injection. Treatments (BZN, benznidazole at 100 mg/kg/day per os, and BNIPSpd (9) at 5 mg/kg/day by intravenous injection) were initiated 7 days after infection, as well as the respective controls (KP, Kolliphor HS 15 20% per os and DMSO 10% by intravenous injection). […] In the lower panel, bioluminescence signal of whole mice represented in average radiance (photons/sec/cm^2/sr) quantified before and after treatment. […] B) Snapshot Pharmacokinetics of BNIPSpd (9) in BALB/c mice by quantification of BNIPSpd (9) in the blood of mice by UHPLC-MS/MS ESI+ at different time-points after administration of a 5 mg/kg dose by intravenous injection. […] The dashed line represents the value of EC50 for BNIPSpd (9) in the in vitro assay against T. cruzi amastigotes, and the dotted line represents the lower limit of quantification of the technique. […]

[8] = Solubility; assay type: physicochemical
[9] = system: T. cruzi amastigotes; experiment: High-content screening assay on intracellular T. cruzi amastigotes; assay type: cell-based, Trypanosoma cruzi; settings: Trypanosoma cruzi, C2C12, 72 h, Y strain in C2C12 host cells, 72 h; read-out: Anti-T. cruzi Activity Amastigotes (EC50 ± SD)
How it was run: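 C2C12 host cells were infected 24 hr with Y strain tissue culture-derived trypomastigotes, then exposed to compound for 72 hrs. After paraformaldehyde fixation and DAPI staining, high-content imaging segmented host nuclei and parasite kinetoplast DNA. Read-out was the average number of amastigotes per host cell.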

O=C1c2cccc3cccc(c23)C(=O)N1CCCNCCCCNCCCNCCCN1C(=O)c2cccc3cccc(c23)C1=O [Compound 9, BNIP Spermidine]
EC50 against T. cruzi epimastigotes WT [1]: moderate activity
Nephotoxicity (MDCK cells) cytotoxicity [2]: ≥ 100 µM
selectivity ratio [3]: 35.2
In vivo activity (bioluminescence signal vs vehicle) [4]: did not exhibit any in vivo activity; also recorded: lack of in vivo activity
selectivity ratio [5]: ~1
Hepatotoxicity (Hepatocytes) cytotoxicity [6]: ≥ 3.1 µM
Highest plasma concentration detected ([7]; at the 5 min time-point): 1.70 µM
Blood level after the 3 h time-point ([7]; 3 h up to 72 h, lower limit of quantification 8.1 nM, listed as BNIPSpd (9)): below the level of detection; also recorded: no longer detected
Aqueous solubility [8]: up to 70%
EC50 [9]: 2840 ± 180 nM
